Test results: patent publication US12344646B2, “Antibody-TNF α fusion protein and its preparation and applications” (priority 2018, dated 2025)
Starred links: 1 amine or outer side, 2 acyl side, 3 side chain; linkers in the order of their positions; H or OH if unused. Positions of bridges follow the written chain, without caps; N, C: chain ends. Non-standard residues stand in square brackets, D forms with d. Residues, ends and D or L forms follow the SMILES beside them. Chains are numbered I, II in the order given. Actinocin(9to1) = Cc1c2oc3c(C)ccc(C(=O)[*:1])c3nc-2c(C(=O)[*:2])c(N)c1=O; NMeV = CN[C@H](C(=O)O)C(C)C; Sar = CNCC(=O)O

Assays:
[1] = tested on: SKBR-3 cells; experiment: Synergistic apoptosis with chemotherapeutic, SKBR-3; assay type: cell-based, human; details: 15 nM actinomycin D alone
Experimental: (§1) FIG. 9A: Her-2 positive human tumor cells (NCI-N87, SKBR-3 and SKOV-3) were cultured in the presence of the fusion protein, actinomycin D or both for 1 day; and cell viability was detected using a CCK-8 kit.
(§2) In the following, the Her-2 positive tumor cells were all obtained from the Cell Bank of the Chinese Academy of Sciences. […] Cell viability was detected by MTT assay.

[2] = tested on: NCI-N87 cells; experiment: Synergistic apoptosis with chemotherapeutic, NCI-N87; assay type: cell-based, human; parameters: effect on viability of NCI-N87 cells: dose or concentration left out as unconfirmed
Excerpt: FIG. […]
as §2

[3] = tested on: SKOV-3 cells; experiment: Synergistic apoptosis with chemotherapeutic, SKOV-3; assay type: cell-based, human; details: 15 nM actinomycin D alone
Experimental: as §1, §2

[4] = tested on: BT-474 cells; experiment: Synergistic apoptosis with chemotherapeutic, BT-474; assay type: cell-based, human; details: 33 μM or 11 μM doxorubicin alone
[5] = tested on: Her-2 positive human gastric cancer cells NCI-N87; experiment: Cytotoxicity of Her-2 antibody-TNFα fusion protein on NCI-N87 cells; assay type: cell-based; details: at concentrations corresponding to the fusion protein below 20 ng/ml
Experimental: FIG. 7A: the NCI-N87 cells were incubated with the antibody-TNFα fusion protein at different concentrations for 1 day; and cell survival was detected using a CCK-8 kit.
The day before experiment, the cells ([…]) in growth medium (150 μl) were added onto a 96-well plate. […] Cell viability was detected using MTT assay and cell viability using CCK-8.

## Cc1c2oc3c(C)ccc(C(=O)N[C@@H]4C(=O)N[C@H](C(C)C)C(=O)N5CCC[C@H]5C(=O)N(C)CC(=O)N(C)[C@@H](C(C)C)C(=O)O[C@@H]4C)c3nc-2c(C(=O)N[C@@H]2C(=O)N[C@H](C(C)C)C(=O)N3CCC[C@H]3C(=O)N(C)CC(=O)N(C)[C@@H](C(C)C)C(=O)O[C@@H]2C)c(N)c1=O [actinomycin D] (I: T[dV]P[Sar][NMeV] / II: T[dV]P[Sar][NMeV]; ester I:1-I:C, II:1-II:C; linker I:N-II:N via Actinocin(9to1))
[1]
  apoptosis in SKBR-3 cells: 70%
[2]; 15 nM actinomycin D alone
  apoptosis in NCI-N87 cells: 25%
[3]
  impact on survival of SKOV-3 cells: Neither 100 ng/ml of Trastuzumab-TNFα fusion protein nor 15 nM of actinomycin D, when used alone, had an impact on survival of SKOV-3 cells

## COc1cccc2c1C(=O)c1c(O)c3c(c(O)c1C2=O)C[C@@](O)(C(=O)CO)C[C@@H]3O[C@H]1C[C@H](N)[C@H](O)[C@H](C)O1 [doxorubicin]
[2]
  effect on viability of NCI-N87 cells: little effect on viability
[4]
  effect on viability of BT-474 cells: little effect on viability

## TNFα
[5]
  apoptosis in NCI-N87 cells: induced no or little apoptosis
